# What was measured:
# rabbit aorta rings = assay: Vasorelaxant effect in vitro (phenylephrine-contracted aorta rings); conditions: Oryctolagus cuniculus, phenylephrine contraction, read-out: IC50 (concentration reducing height of phenylephrine contraction by 50%)
# Method: Rabbits are stunned by a blow to the neck and exsanguinated. The aorta is removed, freed from adhering tissue and divided into rings of a width of 1.5 mm. The rings are placed individually under an initial tension in 5 ml organ baths with Krebs-Henseleit solution which is at 37° C., is gassed with carbogen and has the following composition (in each case mM): sodium chloride 119; potassium chloride: 4.8; calcium chloride dihydrate: 1; magnesium sulphate heptahydrate: 1.4; potassium dihydrogenphosphate: 1.2; sodium bicarbonate: 25; glucose: 10. The force of contraction is detected with Statham UC2 cells, amplified and digitized via A/D converters (DAS-1802 HC, Keithley Instruments, Munich) and recorded in parallel on chart recorders. To produce a contraction, phenylephrine is added to the bath cumulatively in increasing concentration. After several control cycles, the substance to be investigated is added in each further run in increasing dosage in each case, and the height of the contraction achieved is compared with the height of the contraction reached in the last preceding run. The concentration necessary to reduce the height of the control value by 50% is calculated from this (IC50 value). The standard administration volume is 5 μl and the proportion of DMSO in the bath solution corresponds to 0.1%.
# [1] = Pharmacokinetic parameters following intravenous administration in rats; type: in vivo; conditions: rat; for MRT / half-life: male, Wistar, plasma, iv
# Method: The pharmacokinetic parameters of the substance are determined in male CD-1 mice, male Wistar rats and female beagles. The administration volume is 10 ml/kg for mice, 5 ml/kg for rats and 0.5 ml/kg for dogs. Intravenous administration is via a formulation of species-specific plasma/DMSO (99/1) in the case of mice and rats and via water/PEG400/ethanol (50/40/10) in the case of dogs. For easier removal of blood, a silicone catheter is inserted into the right Vena jugularis externa of the rats before the administration of substance. The surgical intervention takes place one day prior to the experiment with isofluran anaesthesia and administration of an analgetic (atropine/rimadyl (3/1) 0.1 ml s.c.). Substance administration is as i.v. bolus in the case of mice, as i.v. bolus or via a 15-minute infusion in the case of rats and via a 15-minute infusion in the case of dogs. Removal of blood is after 0.033, 0.083, 0.17, 0.5, 1, 2, 3, 4, 6, 7 and 24 hours in the case of mice and, after a 15-minute infusion, after 0.083, 0.25, 0.28 0.33, 0.42, 0.75, 1, 2, 3, 4, 6, 7 and 24 hours in the case of dogs and rats and after an i.v. bolus administration, after 0.033, 0.083, 0.17, 0.5, 1, 2, 3, 4, 6, 7 and 24 hours in the case of rats. For all species, oral administration of the dissolved substance via gavage is carried out based on a water/PEG400/ethanol formulation (50/40/10). Here, the removal of blood from rats and dogs is after 0.083, 0.17, 0.5, 0.75, 1, 2, 3, 4, 6, 7 and 24 hours. The blood is removed into heparinized tubes. The blood plasma is then obtained by centrifugation; if required, it can be stored at −20° C. until further processing.
# An internal standard (ZK 228859) is added to the unknown samples, calibration samples and QCs, and the protein is precipitated using excess acetonitrile. After addition of an ammonium acetate buffer (0.01 M, pH 6.8 (Example 1/3) or pH 3.0 (Example 2)) and subsequent vortexing, the mixture is centrifuged at 1000 g and the supernatant is examined by LC-MS/MS (API 4000, AB Sciex). Chromatographic separation is carried out on an Agilent 1100-HPLC. The injection volume is 10 μl. The separation column used is a Phenomenex Luna 5μ C8(2) 100 A 50×2 mm, adjusted to a temperature of 40° C. For Example 1, a binary mobile phase gradient at 400 μl/min is used (A: 0.01M ammonium acetate buffer pH 6.8, B: 0.1% formic acid in acetonitrile): 0 min (90% A), 1 min (90% A), 3.5 min (15% A), 4.5 min (15% A), 4.6 min (90% A), 7 min (90% A). For Example 2, a binary mobile phase gradient at 500 μl/min is used instead (A: 0.01M ammonium acetate buffer pH 3.0, B: 0.1% formic acid in acetonitrile): 0 min (90% A), 1.5 min (90% A), 3.5 min (10% A), 4.5 min (10% A), 5 min (90% A), 7 min (90% A). For Example 3, a binary mobile solvent gradient at 500 μl/min is used instead (A: 0.01M ammonium acetate buffer pH 6.8, B: 0.1% formic acid in acetonitrile): 0 min (90% A), 1 min (90% A), 3 min (10% A), 4 min (10% A), 4.5 min (90% A), 6 min (90% A). The temperature of the Turbo V ion source is 500° C. The following MS instrument parameters are used: curtain gas 20 units (Example 1), 16 units (Example 2) or 15 units (Example 3), ion spray voltage 5 kV (Example 1/2) or 4.5 units (Example 3), gas 1 35 units (Example 1/3) or 25 units (Example 2), gas 2 30 units, CAD gas 4 units (Example 1/3) or 3 units (Example 2). The substances are quantified by peak heights or areas using extracted ion chromatograms of specific MRM experiments.
# The plasma concentration/time plots determined are used to calculate the pharmacokinetic parameters such as AUC, Cmax, MRT (mean residence time), t1/2 (half life) and CL (clearance) employing the validated pharmacokinetic calculation programs KinEx (Vers. 2.5 and 3).
# As the substance quantification is carried out in plasma, it is necessary to determine the blood/plasma distribution of the substance to be able to adjust the pharamacokinetic parameters in an appropriate manner. […]
# [2] = 0.3 mg/kg i.v. bolus administration
# [3] = 0.3 mg/kg i.v., 15-minute infusion
Compound,IC50 (rabbit aorta rings) [nM],"MRT [1, 2] [h]","half-life [1, 2] [h]","AUCnorm [1, 2] [kg·h/L]","CLblood [1, 2] [lh/kg]","MRT [1, 3] [h]","half-life [1, 3] [h]","AUCnorm [1, 3] [kg·h/L]","CLblood [1, 3] [lh/kg]"
COC(=O)N(C)c1c(N)nc(-c2nn(Cc3ccccc3F)c3ncc(F)cc23)nc1N [Example 2],251,2.3,1.7,1.79,0.53,–,–,–,–
"COC(=O)N(CC(F)(F)F)c1c(N)nc(-c2nn(Cc3ccccc3F)c3ncc(F)cc23)nc1N [Example 3, Methyl {4,6-diamino-2-[5-fluoro-1-(2-fluorobenzyl)-1H-pyrazolo[3,4-b]pyridin-3-yl]pyrimidin-5-yl}(2,2,2-trifluoroethyl)carbamate]",515,2.3,1.9,1.36,1.02,–,–,–,–
"COC(=O)Nc1c(N)nc(-c2nn(Cc3ccccc3F)c3ncc(F)cc23)nc1N [Example 1, Methyl {4,6-diamino-2-[5-fluoro-1-(2-fluorobenzyl)-1H-pyrazolo[3,4-b]pyridin-3-yl]pyrimidin-5-yl}carbamate]",958,–,–,–,–,4.1,3.4,4.36,0.29
